Test results from patent US7928139B2 (Amgen Inc., priority 2006, dated 2011).

These compounds were tested against HIF PHD2 (Homo sapiens, UniProt Q9GZT9) (assay: PHD2 inhibition assay (TR-FRET, VCB-Eu detection of hydroxylated P564-HIF1α peptide)). Conditions: 2 nM PHD2, 100 nM P564-HIF1α peptide, 0.25 μM 2-oxoglutarate, 100 μM FeCl2, 2 mM ascorbic acid.
Type: biochemical
Method in brief: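 Human PHD2 (2 nM final) preincubated 1 h at room temperature with compound and 100 μM FeCl2 in pH 6 MES buffer, 5% DMSO final. Reaction with 100 nM biotinylated P564-HIF1α peptide, 2 mM ascorbate and 0.25 μM 2-oxoglutarate for 1 h, stopped with succinate. Hydroxylation read by TR-FRET (VCB-Eu/streptavidin-APC, 655/615 nm); IC50 from 4-parameter fit of percent of control.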

Chain of HIF PHD2 (Q9GZT9 whole entry): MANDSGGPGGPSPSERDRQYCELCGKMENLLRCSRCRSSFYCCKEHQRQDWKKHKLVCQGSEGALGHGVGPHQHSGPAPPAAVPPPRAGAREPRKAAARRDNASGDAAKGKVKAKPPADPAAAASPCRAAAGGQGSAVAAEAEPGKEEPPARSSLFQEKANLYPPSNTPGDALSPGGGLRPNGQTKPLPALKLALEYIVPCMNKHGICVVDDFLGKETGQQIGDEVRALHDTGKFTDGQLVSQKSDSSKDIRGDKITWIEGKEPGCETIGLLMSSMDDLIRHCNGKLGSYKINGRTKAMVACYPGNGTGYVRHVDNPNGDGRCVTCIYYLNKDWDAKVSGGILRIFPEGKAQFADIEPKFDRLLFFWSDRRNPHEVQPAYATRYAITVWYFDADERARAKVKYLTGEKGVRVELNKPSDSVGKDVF

IC50 | SMILES
500 to 1000 nM | CC1(C)C(=O)C(C(=O)NCC(=O)O)=C(O)c2cc(-c3ccccc3)ccc21 [Example 68, N-((6-Phenyl-4-hydroxy-1,1-dimethyl-2-oxo-naphthalen-3-yl)carbonyl)glycine]
< 100 nM | O=C(O)CNC(=O)C1=C(O)c2ccccc2C2(CCN(Cc3ccccc3)CC2)C1=O [Example 69, N-((4-Hydroxy-2-oxo-2′,3′,5′,6′-tetrahydro-N-benzyl-spiro[naphthalene-1,4′-piperidine]-3-yl)carbonyl)glycine]
100 to 500 nM | O=C(O)CNC(=O)C1=C(O)c2ccccc2C2(CCNCC2)C1=O [Example 70, N-((4-Hydroxy-2-oxo-2′,3′,5′,6′-tetrahydro-spiro[naphthalene-1,4′-piperidine]-3-yl)carbonyl)glycine]
< 100 nM | O=C(O)CNC(=O)C1=C(O)c2cc(Cl)ccc2C2(CCN(Cc3ccccc3)CC2)C1=O [Example 71, N-((6-Chloro-4-hydroxy-2-oxo-2′,3′,5′,6′-tetrahydro-N-benzyl-spiro[naphthalene-1,4′-piperidine]-3-yl)carbonyl)glycine]
< 100 nM | O=C(O)CNC(=O)C1=C(O)c2cc(Cl)ccc2C2(CCCO2)C1=O (centres unmarked) [Example 72, N-((6′-Chloro-4′-hydroxy-2′-oxo-4,5-dihydro-spiro[furan-2,1′-naphthalen]-3′-yl)carbonyl)glycine]
< 100 nM | O=C(O)CNC(=O)C1=C(O)c2cc(Cl)ccc2[C@@]2(CCCO2)C1=O [Example 73, N-(((2S)-6′-Chloro-4′-hydroxy-2′-oxo-4,5-dihydro-spiro[furan-2,1′-naphthalen]-3′-yl)carbonyl)glycine]
100 to 500 nM | O=C(O)CNC(=O)C1=C(O)c2cc(Cl)ccc2[C@]2(CCCO2)C1=O [Example 74, N-(((2R)-6′-Chloro-4′-hydroxy-2′-oxo-4,5-dihydro-spiro[furan-2,1′-naphthalen]-3′-yl)carbonyl)glycine]
< 100 nM | O=C(O)CNC(=O)C1=C(O)c2cc(Cl)ccc2C2(CCCOC2)C1=O (centres unmarked) [Example 75, N-((6-Chloro-4-hydroxy-2-oxo-5′,6′-dihydro-spiro[naphthalene-1,3′-pyran]-3-yl)carbonyl)glycine]
100 to 500 nM | O=C(O)CNC(=O)C1=C(O)c2cc(Cl)ccc2[C@]2(CCCOC2)C1=O [Example 76, N-(((1S)-6-Chloro-4-hydroxy-2-oxo-5′,6′-dihydro-spiro[naphthalene-1,3′-pyran]-3-yl)carbonyl)glycine]
< 100 nM | O=C(O)CNC(=O)C1=C(O)c2cc(Cl)ccc2[C@@]2(CCCOC2)C1=O [Example 77, N-(((1R)-6-Chloro-4-hydroxy-2-oxo-5′,6′-dihydro-spiro[naphthalene-1,3′-pyran]-3-yl)carbonyl)glycine]
100 to 500 nM | CC[C@]1(C)C(=O)C(C(=O)NCC(=O)O)=C(O)c2cc(Cl)ccc21 [Example 79, N-(((1S)-6-Chloro-4-hydroxy-1-ethyl-1-methyl-2-oxo-naphthalen-3-yl)carbonyl)glycine]
< 100 nM | O=C(O)CNC(=O)C1=C(O)c2cc(Cl)ccc2C2(CCC(=O)CC2)C1=O [Example 80, N-((6′-Chloro-4′-hydroxy-2′,4-dioxo-spiro[cyclohexane-1,1′-naphthalen]-3′-yl)carbonyl)glycine]
< 100 nM | CC1(C)C(=O)C(C(=O)NCC(=O)O)=C(O)c2c(F)cccc21 [Example 81, N-((5-Fluoro-4-hydroxy-1,1-dimethyl-2-oxo-naphthalen-3-yl)carbonyl)glycine]
< 100 nM | CC1(C)C(=O)C(C(=O)NCC(=O)O)=C(O)c2c(Cl)cccc21 [Example 82, N-((5-Chloro-4-hydroxy-1,1-dimethyl-2-oxo-naphthalen-3-yl)carbonyl)glycine]
< 100 nM | O=C(O)CNC(=O)C1=C(O)c2cccc(F)c2C2(CCOCC2)C1=O [Example 83, N-((8-Fluoro-4-hydroxy-2-oxo-2′,3′,5′,6′-tetrahydro-spiro[naphthalene-1,4′-pyran]-3-yl)carbonyl)glycine]
< 100 nM | CC1(C#N)C(=O)C(C(=O)NCC(=O)O)=C(O)c2cc(Cl)ccc21 (centres unmarked) [Example 84, N-((6-Chloro-1-cyano-4-hydroxy-1-methyl-2-oxo-naphthalen-3-yl)carbonyl)glycine]
< 100 nM | C[C@@]1(C#N)C(=O)C(C(=O)NCC(=O)O)=C(O)c2cc(Cl)ccc21 [Example 85, N-(((1R)-6-Chloro-1-cyano-4-hydroxy-1-methyl-2-oxo-naphthalen-3-yl)carbonyl)glycine]
< 100 nM | C[C@]1(C#N)C(=O)C(C(=O)NCC(=O)O)=C(O)c2cc(Cl)ccc21 [Example 86, N-(((1S)-6-Chloro-1-cyano-4-hydroxy-1-methyl-2-oxo-naphthalen-3-yl)carbonyl)glycine]
< 100 nM | C[C@@]1(C#N)C(=O)C(C(=O)NCC(=O)O)=C(O)c2ccccc21 [Example 87, N-(((1R)-1-Cyano-4-hydroxy-1-methyl-2-oxo-naphthalen-3-yl)carbonyl)glycine]
< 100 nM | C[C@]1(C#N)C(=O)C(C(=O)NCC(=O)O)=C(O)c2ccccc21 [Example 88, N-(((1S)-1-Cyano-4-hydroxy-1-methyl-2-oxo-naphthalen-3-yl)carbonyl)glycine]
< 100 nM | CC1(C)C(=O)C(C(=O)NCC(=O)O)=C(O)c2cccc(Cl)c21 [Example 89, N-((8-Chloro-4-hydroxy-1,1-dimethyl-2-oxo-naphthalen-3-yl)carbonyl)glycine]
< 100 nM | CC1(C)C(=O)C(C(=O)NCC(=O)O)=C(O)c2ccc(Cl)c(F)c21 [Example 90, N-((7-Chloro-8-fluoro-4-hydroxy-1,1-dimethyl-2-oxo-naphthalen-3-yl)carbonyl)glycine]
< 100 nM | O=C(O)CNC(=O)C1=C(O)c2cc(Cl)ccc2C2(CCN(C(=O)c3ccccc3)CC2)C1=O [Example 91, N-((6-Chloro-4-hydroxy-2-oxo-1′-(phenylcarbonyl)-spiro[naphthalene-1,4′-piperidin]-3-yl)carbonyl)glycine]
< 100 nM | CC1(C)C(=O)C(C(=O)NCC(=O)O)=C(O)c2cc(Cl)c(F)cc21 [Example 92, N-((6-Chloro-7-fluoro-4-hydroxy-1,1-dimethyl-2-oxo-naphthalen-3-yl)carbonyl)glycine]
< 100 nM | O=C(O)CNC(=O)C1=C(O)c2cc(Cl)ccc2C2(CCC2)C1=O [Example 93, N-((6′-Chloro-4′-hydroxy-2′-oxo-spiro[cyclobutane-1,1′-naphthalen]-3′-yl)carbonyl)glycine]
< 100 nM | O=C(O)CNC(=O)C1=C(O)c2ccccc2C2(CCOCC2)C1=O [Example 94, N-((4-hydroxy-2-oxo-2′,3′,5′,6′-tetrahydro-spiro[naphthalene-1,4′-pyran]-3-yl)carbonyl)glycine]
100 to 500 nM | O=C(N[C@@H](CO)C(=O)O)C1=C(O)c2cc(Cl)ccc2C2(CCOCC2)C1=O [Example 95, N-((6-Chloro-4-hydroxy-2-oxo-2′,3′,5′,6′-tetrahydro-spiro[naphthalene-1,4′-pyran]-3-yl)carbonyl)-L-serine]
< 100 nM | CC1(C)C(=O)C(C(=O)NCC(=O)O)=C(O)c2cc(F)c(Cl)cc21 [Example 96, N-((7-Chloro-6-fluoro-4-hydroxy-1,1-dimethyl-2-oxo-naphthalen-3-yl)carbonyl)glycine]
< 100 nM | O=C(O)CNC(=O)C1=C(O)c2cc(F)c(Cl)cc2C2(CCOCC2)C1=O [Example 97, N-((7-Chloro-6-fluoro-4-hydroxy-2-oxo-2′,3′,5′,6′-tetrahydro-spiro[naphthalene-1,4′-pyran]-3-yl)carbonyl)glycine]
